Test results: ChEMBL document CHEMBL4765320, “Identification and optimization of piperine analogues as neuroprotective agents for the treatment of Parkinson's disease via the activation of Nrf2/keap1 pathway” (Eur J Med Chem, 2020)

tested on: PC-12; assay: Neuroprotective activity against H2O2-induced cytotoxicity in rat PC-12 cells assessed as cell viability at 12.5 uM pretreated for 24 hrs followed by H2O2 challenge and measured after 24 hrs by MTT assay (reference value: 52.81 +/- 6%); format: functional; details: time 48 hrs, read-out: Activity

SMILES	viability at 12.5 µM [%]
O=C(/C=C/C=C/c1cccs1)N1CCCCC1	57.9
CCNC(=O)/C=C/c1cccs1	56.5
O=C(/C=C/c1ccc(N2CCCC2)cc1)N1CCCCC1	30.6
CC(C)(C)c1cc(O)ccc1O [E319]	70.4
CCN(CC)C(=O)/C=C/c1ccc2c(c1)OCO2	71.7
O=C(/C=C/C=C/c1ccccc1O)N1CCCCC1	68.8
CCN(CC)C(=O)/C=C/C=C/c1cccn1C	67.8
CCN(CC)C(=O)/C=C/c1ccc(N2CCCC2)cc1	26.1
CCN(CC)C(=O)/C=C/C=C/c1ccccc1OC	80.7
COc1ccccc1/C=C/C(=O)N1CCCCC1	81.3
CCNC(=O)/C=C/C=C/c1ccccc1OC	74.6
CCN(CC)C(=O)/C=C/c1ccc(N2CCNCC2)cc1	69.1
CCN(CC)C(=O)/C=C/C=C/c1ccc2c(c1)OCO2	31.4
CCNC(=O)/C=C/c1ccc2c(c1)OCO2	69.7
O=C(/C=C/c1ccc2c(c1)OCO2)N1CCCCC1 [ILEPCIMIDE]	77
O=C(/C=C/C=C/c1ccc(-c2ccccc2)cc1)N1CCCCC1	15.2
O=C(/C=C/C=C/c1ccc(O)cc1)N1CCCCC1	48.4

SMILES	viability at 12.5 µM [%]
O=C(/C=C/C=C/c1ccc(N2CCCCC2)cc1)N1CCCCC1	18.9
COc1cccc(/C=C/C=C/C(=O)N2CCCCC2)c1	58.1
CCNC(=O)/C=C/C=C/c1ccc(O)cc1	69.1
O=C(/C=C/c1cccs1)N1CCCCC1	50.4
CCN(CC)C(=O)/C=C/C=C/c1ccc(O)cc1	67.3
O=C(/C=C/C=C/c1ccc(N2CCCC2)cc1)N1CCCCC1	37.2
CCN(CC)C(=O)/C=C/c1cccs1	54.3
O=C(/C=C/C=C/c1ccco1)N1CCCCC1	33.3
CCNC(=O)/C=C/c1ccccc1OC	68.5
O=C(/C=C/c1ccc(N2CCNCC2)cc1)N1CCCCC1	72.6
COc1ccc(/C=C/C=C/C(=O)N2CCCCC2)cc1	26.5
CCNC(=O)/C=C/c1ccc(N2CCNCC2)cc1	42.7
O=C(/C=C/C=C/c1ccc2c(c1)OCO2)N1CCCCC1 [PIPERINE]	55.7
O=C(/C=C/C=C/c1cccc(O)c1)N1CCCCC1	75.7
CCNC(=O)/C=C/C=C/c1ccc2c(c1)OCO2	22.3
CCN(CC)C(=O)/C=C/c1ccccc1OC	78.2
O=C(/C=C/C=C/c1ccc(N2CCOCC2)cc1)N1CCCCC1	20.2
